# According to PubChem BioAssay AID248 (DTP/NCI, 2004):
# Several values for one entry are separate records, joined by “and”; a condition that tells them apart may be missing. Identical values can stand only once. Toxic doses and inconclusive results are not listed.
# Test system: L1210 leukemia ip in BDF1 mice, survival T/C
# Test: NCI In Vivo Anticancer Drug Screen. Data for tumor model L1210 Leukemia (intraperitoneal) in B6D2F1 (BDF1) mice
# Conditions: endpoint: mean survival time, higher = longer survival
# Summary of the method: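 Survival endpoint. Drug-treated group vs vehicle group, expressed as T divided by C. Tumor passaged by transplantation.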
# [1] = dose: 100.0 mg/kg/injection, schedule: Q04DX003 (ip), vehicle: saline with Tween-80
# [2] = dose: 200.0 mg/kg/injection, schedule: Q04DX003 (ip), vehicle: saline with Tween-80
# [3] = dose: 400.0 mg/kg/injection, schedule: Q04DX003 (ip), vehicle: saline with Tween-80
smiles,measurement,setting,value
CN(C)c1ccc(C(O)C(N)=O)cc1 (configuration not stated),T/C,"dose: 6.25 mg/kg/injection, schedule: Q01DX001 (ip), vehicle: saline",103 % of control
same,T/C,"dose: 12.5 mg/kg/injection, schedule: Q01DX001 (ip), vehicle: saline",94 % of control
same,T/C,"dose: 25.0 mg/kg/injection, schedule: Q01DX001 (ip), vehicle: saline",97 % of control
CC(C)(N)CBr,T/C,"dose: 100.0 mg/kg/injection, schedule: Q04DX002 (ip), vehicle: saline",100 % of control
same,T/C,"dose: 200.0 mg/kg/injection, schedule: Q04DX002 (ip), vehicle: saline",113 % of control
same,T/C,"dose: 400.0 mg/kg/injection, schedule: Q04DX002 (ip), vehicle: saline",95 % of control
O=C(c1ccccc1)c1cccc([N+](=O)[O-])c1,T/C,[1],98 % of control
same,T/C,[2],93 % of control
same,T/C,[3],89 % of control
Oc1ccccc1N=CC1CCCCC1,T/C,[1],87 % of control
same,T/C,[2],88 % of control
same,T/C,[3],92 % of control
c1ccc(CC2NCCc3ccccc32)cc1 (configuration not stated),T/C,"dose: 25.0 mg/kg/injection, schedule: Q04DX003 (ip), vehicle: acetone",102 % of control
same,T/C,"dose: 25.0 mg/kg/injection, schedule: Q04DX003 (ip), vehicle: saline with Tween-80",99 % of control
same,T/C,"dose: 50.0 mg/kg/injection, schedule: Q04DX003 (ip), vehicle: acetone",102 % of control
same,T/C,"dose: 50.0 mg/kg/injection, schedule: Q04DX003 (ip), vehicle: saline with Tween-80",94 % of control
same,T/C,"dose: 100.0 mg/kg/injection, schedule: Q01DX001 (ip), vehicle: acetone",89 % of control
same,T/C,"dose: 100.0 mg/kg/injection, schedule: Q04DX003 (ip), vehicle: acetone",91 % of control
same,T/C,[1],102 % of control
CCC1C/C(=C\NC(N)=O)C(=O)O1 (configuration not stated),T/C,"dose: 100.0 mg/kg/injection, schedule: Q01DX009 (ip), vehicle: saline with Tween-80",96 % of control
same,T/C,[1],96 % of control
same,T/C,"dose: 200.0 mg/kg/injection, schedule: Q01DX009 (ip), vehicle: saline with Tween-80",100 % of control
same,T/C,[2],104 % of control
same,T/C,"dose: 400.0 mg/kg/injection, schedule: Q01DX009 (ip), vehicle: saline with Tween-80",100 % of control
same,T/C,[3],101 % of control
CC(=O)Nc1cc2c(cc1CC(=O)O)OCO2,T/C,"dose: 50.0 mg/kg/injection, schedule: Q01DX001 (ip), vehicle: saline",101 % of control
same,T/C,"dose: 100.0 mg/kg/injection, schedule: Q01DX001 (ip), vehicle: saline",95 % of control
same,T/C,"dose: 200.0 mg/kg/injection, schedule: Q01DX001 (ip), vehicle: saline",95 % of control
same,T/C,"dose: 400.0 mg/kg/injection, schedule: Q01DX001 (ip), vehicle: saline",101 % of control
CC(=O)Oc1ccc(OC(C)=O)c2c1CC(C)=C(C)C2,T/C,"dose: 100.0 mg/kg/injection, schedule: Q01DX009 (ip), vehicle: saline",95 % of control
same,T/C,"dose: 100.0 mg/kg/injection, schedule: Q04DX003 (ip), vehicle: saline",97 % of control
same,T/C,"dose: 200.0 mg/kg/injection, schedule: Q01DX009 (ip), vehicle: saline",90 % of control
same,T/C,"dose: 200.0 mg/kg/injection, schedule: Q04DX003 (ip), vehicle: saline",98 % of control
same,T/C,"dose: 400.0 mg/kg/injection, schedule: Q01DX009 (ip), vehicle: saline",92 % of control
same,T/C,"dose: 400.0 mg/kg/injection, schedule: Q04DX003 (ip), vehicle: saline",97 % of control
Cc1cc(NC(=O)c2ccc(C(=O)Nc3ccc(C4=NCCN4)c(C)c3)cc2)ccc1C1=NCCN1,T/C,"dose: 48.0 mg/kg/injection, schedule: Q01DX Z (ip), vehicle: carboxymethylcellulose (CMC)",109 % of control
same,T/C,"dose: 72.0 mg/kg/injection, schedule: Q01DX Z (ip), vehicle: carboxymethylcellulose (CMC)",122 % of control
same,T/C,"dose: 100.0 mg/kg/injection, schedule: Q01DX Z (oral), vehicle: water",92 % of control
same,T/C,"dose: 110.0 mg/kg/injection, schedule: Q01DX Z (ip), vehicle: carboxymethylcellulose (CMC)",150 % of control and 277 % of control
same,T/C,"dose: 168.0 mg/kg/injection, schedule: Q01DX Z (ip), vehicle: carboxymethylcellulose (CMC)",164 % of control
same,T/C,"dose: 200.0 mg/kg/injection, schedule: Q01DX Z (oral), vehicle: water",107 % of control
same,T/C,"dose: 250.0 mg/kg/injection, schedule: Q01DX Z (ip), vehicle: carboxymethylcellulose (CMC)",108 % of control and 112 % of control
same,T/C,"dose: 375.0 mg/kg/injection, schedule: Q01DX Z (ip), vehicle: carboxymethylcellulose (CMC)",92 % of control
same,T/C,"dose: 400.0 mg/kg/injection, schedule: Q01DX Z (oral), vehicle: water",92 % of control
same,T/C,"dose: 800.0 mg/kg/injection, schedule: Q01DX Z (oral), vehicle: water",102 % of control
CCOC(=O)CC(C)=O.[Cu+2],T/C,"dose: 6.25 mg/kg/injection, schedule: Q01DX009 (ip), vehicle: saline",96 % of control
same,T/C,"dose: 12.5 mg/kg/injection, schedule: Q01DX009 (ip), vehicle: saline",104 % of control
same,T/C,"dose: 12.5 mg/kg/injection, schedule: Q04DX003 (ip), vehicle: Klucel (hydroxypropylcellulose) (HPC)",94 % of control
same,T/C,"dose: 25.0 mg/kg/injection, schedule: Q01DX009 (ip), vehicle: saline",90 % of control
same,T/C,"dose: 25.0 mg/kg/injection, schedule: Q04DX003 (ip), vehicle: Klucel (hydroxypropylcellulose) (HPC)",96 % of control
CCC1(O)CCCC1,T/C,"dose: 50.0 mg/kg/injection, schedule: Q01DX001 (ip), vehicle: carboxymethylcellulose (CMC)",95 % of control
same,T/C,"dose: 100.0 mg/kg/injection, schedule: Q01DX001 (ip), vehicle: carboxymethylcellulose (CMC)",92 % of control
same,T/C,"dose: 200.0 mg/kg/injection, schedule: Q01DX001 (ip), vehicle: carboxymethylcellulose (CMC)",92 % of control
same,T/C,"dose: 400.0 mg/kg/injection, schedule: Q01DX001 (ip), vehicle: carboxymethylcellulose (CMC)",97 % of control
NC(=O)C(O)(C(F)(F)F)C(F)(F)F,T/C,"dose: 1.25 mg/kg/injection, schedule: Q01DX009 (ip), vehicle: saline",97 % of control
same,T/C,"dose: 2.5 mg/kg/injection, schedule: Q01DX009 (ip), vehicle: saline",111 % of control
same,T/C,"dose: 5.0 mg/kg/injection, schedule: Q01DX009 (ip), vehicle: saline",95 % of control
same,T/C,"dose: 5.0 mg/kg/injection, schedule: Q04DX003 (ip), vehicle: saline",97 % of control
same,T/C,"dose: 10.0 mg/kg/injection, schedule: Q01DX001 (ip), vehicle: saline",102 % of control
same,T/C,"dose: 10.0 mg/kg/injection, schedule: Q04DX003 (ip), vehicle: saline",100 % of control
same,T/C,"dose: 20.0 mg/kg/injection, schedule: Q01DX001 (ip), vehicle: saline",94 % of control
CCOC(=O)c1cn2ccc3ccccc3c2n1,T/C,"dose: 100.0 mg/kg/injection, schedule: Q01DX001 (ip), vehicle: Klucel (hydroxypropylcellulose) (HPC)",103 % of control
same,T/C,"dose: 200.0 mg/kg/injection, schedule: Q01DX001 (ip), vehicle: Klucel (hydroxypropylcellulose) (HPC)",98 % of control
same,T/C,"dose: 400.0 mg/kg/injection, schedule: Q01DX001 (ip), vehicle: Klucel (hydroxypropylcellulose) (HPC)",98 % of control
Nc1cc(Cl)cc2c1-c1c(Cl)cc(Cl)cc1C2O (configuration not stated),T/C,"dose: 100.0 mg/kg/injection, schedule: Q01DX009 (ip), vehicle: Klucel (hydroxypropylcellulose) (HPC)",102 % of control
same,T/C,"dose: 100.0 mg/kg/injection, schedule: Q04DX003 (ip), vehicle: Klucel (hydroxypropylcellulose) (HPC)",102 % of control
same,T/C,"dose: 200.0 mg/kg/injection, schedule: Q01DX009 (ip), vehicle: Klucel (hydroxypropylcellulose) (HPC)",100 % of control
same,T/C,"dose: 200.0 mg/kg/injection, schedule: Q04DX003 (ip), vehicle: Klucel (hydroxypropylcellulose) (HPC)",105 % of control
same,T/C,"dose: 400.0 mg/kg/injection, schedule: Q04DX003 (ip), vehicle: Klucel (hydroxypropylcellulose) (HPC)",97 % of control
Nc1ncnc2c1ncn2C1OC(C(=O)NO)C(O)C1O (configuration not stated),T/C,"dose: 0.78 mg/kg/injection, schedule: Q01DX009 (ip), vehicle: saline",106 % of control
same,T/C,"dose: 1.56 mg/kg/injection, schedule: Q01DX005 (ip), vehicle: saline",104 % of control
same,T/C,"dose: 1.56 mg/kg/injection, schedule: Q01DX009 (ip), vehicle: saline",123 % of control
same,T/C,"dose: 3.12 mg/kg/injection, schedule: Q01DX005 (ip), vehicle: saline",121 % of control
Oc1c(Cl)cc(Cl)cc1/C=N/Nc1nnc(N/N=C/c2cc(Cl)cc(Cl)c2O)c2ccccc12,T/C,"dose: 50.0 mg/kg/injection, schedule: Q01DX001 (ip), vehicle: other",111 % of control
same,T/C,"dose: 100.0 mg/kg/injection, schedule: Q01DX001 (ip), vehicle: other",101 % of control
same,T/C,"dose: 200.0 mg/kg/injection, schedule: Q01DX001 (ip), vehicle: other",102 % of control
same,T/C,"dose: 400.0 mg/kg/injection, schedule: Q01DX001 (ip), vehicle: other",102 % of control
